Structures are written as SMILES.

The source of these data is patent US9765056B2, “Indole and pyrrole compounds, a process for their preparation and pharmaceutical compositions containing them” (LES LABORATOIRES SERVIER, priority 2013, dated 2017).

Test [1] concerns RS4;11 leukaemia tumour line. As to the kind of experiment: In vitro cytotoxicity, Microculture Tetrazolium Assay (MTT). The test is classed as cell-based. Particulars: Homo sapiens; RS4;11 cells, 48 hours exposure. The procedure: The cytotoxicity studies were carried out on the RS4;11 leukaemia tumour line.
The cells are distributed onto microplates and exposed to the test compounds for 48 hours. The cell viability is then quantified by a colorimetric assay, the Microculture Tetrazolium Assay (Cancer Res., 1987, 47, 939-942).

Test [2] relates to cleaved form of caspase 3. The experiment in a line: Quantification of the cleaved form of caspase 3 in vivo (MSD ELISA) in RS4;11 xenograft tumour lysates. On the set-up: species or system mice (SCID strain). To be noted: oral route, tumour removed after 2 h. The protocol: Quantification of the Cleaved Form of Caspase 3 In Vivo
The ability of the compounds of the invention to activate caspase 3 is evaluated in a xenograft model of RS4;11 leukaemia cells.
1×10^7 RS4;11 cells are grafted subcutaneously into immunosuppressed mice (SCID strain). 25 to 30 days after the graft, the animals are treated orally with the various compounds. After treatment, the tumour masses are recovered (after a time period T) and lysed, and the cleaved (activated) form of caspase 3 is quantified in the tumour lysates.
This quantification is carried out using the “Meso Scale Discovery (MSD) ELISA platform” test, which specifically assays the cleaved form of caspase 3. It is expressed in the form of an activation factor corresponding to the ratio between the quantity of cleaved caspase 3 in the treated mice divided by the quantity of cleaved caspase 3 in the control mice.
(In general: An ELISA detects its analyte on a solid surface through an enzyme-linked reagent.)

The next test has as its target Bcl-2 protein (histag-Bcl-2, UniProtKB P10415) (Homo sapiens (Human), UniProt P10415). The experiment in a line: Inhibition of Bcl-2 by the fluorescence polarisation technique. It counts as binding. To be noted: fluorescence polarisation test; method A, or method B where underlined (underlining not visible); read-out: IC50 (nM) Bcl-2 FP. The text has this: Inhibition of Bcl-2 by the fluorescence polarisation technique
A general note: In fluorescence polarisation assays a small probe gives low polarisation when free and higher when bound to something large.

Bcl-2 protein, sequence (P10415 whole entry): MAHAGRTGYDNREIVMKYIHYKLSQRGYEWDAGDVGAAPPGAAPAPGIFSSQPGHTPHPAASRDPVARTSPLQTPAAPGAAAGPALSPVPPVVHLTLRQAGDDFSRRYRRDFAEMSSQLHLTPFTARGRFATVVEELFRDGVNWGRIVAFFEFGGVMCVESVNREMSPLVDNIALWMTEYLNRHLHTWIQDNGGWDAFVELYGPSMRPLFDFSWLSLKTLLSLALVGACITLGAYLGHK

As to `Cc1c(C(=O)N(c2ccc(O)cc2)c2cnc3c(c2)CCN3C)cn(-c2cc(Cl)ccc2C(=O)N2Cc3ccccc3C[C@H]2CN2CCOCC2)c1C.Cl` [Example 210, 1-(5-Chloro-2-{[(3S)-3-(morpholin-4-ylmethyl)-3,4-dihydroisoquinolin-2(1H)-yl]carbonyl}phenyl)-N-(4-hydroxyphenyl)-4,5-dimethyl-N-(1-methyl-2,3-dihydro-1H-pyrrolo[2,3-b]pyridin-5-yl)-1H-pyrrole-3-carboxamide hydrochloride], the results for the IC50 (in test [1]; on Bcl-2 protein) were 64.7 nM and 3.1 nM, respectively. For the same compound, the “Activation factor ± SEM (versus control), cleaved caspase 3 MSD test” value in test [2] (125 mg/kg) worked out at 36.3 ± 13.3.
As for `Cc1c(C(=O)N(c2ccc(O)cc2)c2cc(C#N)n(C)c2C)cn(-c2cc(Cl)ccc2C(=O)N2Cc3ccccc3C[C@H]2CN2CCOCC2)c1C.Cl` [Example 211, 1-(5-Chloro-2-{[(3S)-3-(morpholin-4-ylmethyl)-3,4-dihydroisoquinolin-2(1H)-yl]carbonyl}phenyl)-N-(5-cyano-1,2-dimethyl-1H-pyrrol-3-yl)-N-(4-hydroxyphenyl)-4,5-dimethyl-1H-pyrrole-3-carboxamide hydrochloride], the IC50 was 46.9 nM in test [1] and 3.7 nM on Bcl-2 protein. Besides, the “Activation factor ± SEM (versus control), cleaved caspase 3 MSD test” value in test [2] (25 mg/kg) turned out to be 94.7 ± 9.8.

One may read the IC50 as the concentration that inhibits the measured activity by half.
